Measurements from paper PMC9837764 (Nature Communications, 2023).
Several values for one entry are separate records, joined by “and”; a condition that tells them apart may be missing. Equal values may be shown once.

Tests used:
SARS-CoV-2 = test: Cell-associated virus RNA in SARS-CoV-2-infected human primary monocytes; type: cell-based; conditions: for Cell-associated virus RNA loads, inhibition (Fig1C source data, per donor): monocytes
Experimental: Human primary monocytes were obtained after 3 h of plastic adherence of peripheral blood mononuclear cells (PBMCs). The use of primary human cell was approved by Institutional Review Board from the Oswaldo Cruz Foundation under protocol 49971421.8.0000.5248 with signed informed consent in accordance with the Hemotherapy Service of Hospital Clementino Fraga from the Federal University of Rio de Janeiro. All volunteers were de-identified. PBMCs were isolated from healthy donors by density gradient centrifugation (Ficoll-Paque, GE Healthcare). PBMCs (2.0 × 10^6 cells) were plated onto 48-well plates (NalgeNunc) in RPMI-1640 without serum for 2–4 h. Nonadherent cells were removed, and the remaining monocytes were maintained in DMEM with 5% human serum (HS; Millipore) and penicillin/streptomycin. The purity of human monocytes was above 95%, as determined by flow cytometric analysis (FACScan; Becton Dickinson) using anti-CD3 (BD Biosciences, cat # 555342, 1:40), anti-CD16 (Southern Biotech, cat # 561313, 1:20) and APC mouse IgG2a isotype (BD Biosciences, cat # 550882, 1/40) and PE mouse IgG1 isotype (BD Biosciences, 555749, 1/20).
Total viral RNA from a culture supernatant and/or monolayers was extracted using QIAamp Viral RNA (Qiagen®) according to the manufacturer’s instructions. Quantitative RT‒PCR was performed using GoTaq® Probe qPCR and RT-qPCR Systems (Promega) in a StepOne™ Real-Time PCR System (Thermo Fisher Scientific) ABI PRISM 7500 Sequence Detection System (Applied Biosystems). Amplifications were carried out in 25 µL reaction mixtures containing 2× reaction mix buffer, […] of each primer, 10 µM of probe, and 5 µL of RNA template. Primers, probes, and cycling conditions recommended by the Centers for Disease Control and Prevention (CDC) protocol were used to detect SARS-CoV-2[52]. The standard curve method was employed for virus quantification. For reference to the cell amounts used, the housekeeping gene RNAse P (F-5′-[…] -3′, R-5′[…] -3′, P-5′-FAM-[…] -BHQ-1-3′) was amplified. The Ct values for this target were compared to those obtained for different cell amounts, 10^7 to 10^2, for calibration.

[1] = Pharmacokinetics in mouse plasma; type: in vivo, CD1 mice (Mus musculus); set-up: MB-905 level (Fig5A): unit not given here; conditions: for MB-905 level (Fig5A): individual animals; for k el: read-out: Ke (converted)
[2] = Pharmacokinetics and metabolites in rat plasma; type: in vivo, Sprague-Dawley rats (Rattus norvegicus); set-up: MB-905 in rat plasma (Fig4B source data, per animal) / MB-905 in rat plasma (Fig4A source data, per animal): unit not given here; conditions: for MB-905 in rat plasma (Fig4A source data, per animal): 1 mg/kg i.v.; for MB-905 in rat plasma (Fig4B source data, per animal): 30 mg/kg oral; for k el: read-out: Ke (converted)
SARS-CoV-2 gamma VoC [3] = system: SARS-CoV-2 gamma VoC; set-up: species or system K18-hACE2 mice (Mus musculus); conditions: mouse, in vivo
SARS-CoV-2 gamma VoC [4] = system: SARS-CoV-2 gamma VoC; set-up: species or system K18-hACE2 mice (Mus musculus); conditions: mouse, in vivo; remark: listed apart in the source
SARS-CoV-2 Gamma VoC [5] = system: SARS-CoV-2 Gamma VoC; set-up: species or system Syrian hamsters (Mesocricetus auratus); conditions: hamster, in vivo
[6] = system: Salmonella typhimurium TA 100
[7] = male, Sprague-Dawley, rat, in vivo, 250 mg/kg
[8] = system: Salmonella typhimurium TA 102; test: Ames test, strain TA 102
[9] = both sexes, CD1, mouse, plasma, iv, mice, 3 mg/kg (i.v.)
[10] = both sexes, CD1, mouse, plasma, po, mice, 30 mg/kg (p.o.)
[11] = both sexes, CD1, mouse, plasma, po, mice, 550 mg/kg (p.o.)
[12] = both sexes, Sprague-Dawley, rat, plasma, iv, rats, 1 mg/kg (i.v.)
[13] = both sexes, Sprague-Dawley, rat, plasma, po, rats, 30 mg/kg (p.o.)

## c1coc(CNc2ncnc3[nH]cnc23)c1 [MB-905, N6-furfurylaminopurine]
SARS-CoV-2; Fig. 1c
  Cell-associated virus RNA levels in SARS-CoV-2-infected monocytes: reduced cell-associated virus RNA levels in a concentration-dependent manner
SARS-CoV-2; 24 h, Drug 1
  Cell-associated virus RNA loads, inhibition (Fig1C source data, per donor): 41 and 30 and 63 and 20 and 2 (2×)
SARS-CoV-2; 24 h, Drug 10
  Cell-associated virus RNA loads, inhibition (Fig1C source data, per donor): 93 and 42 and 46 and 13 and 6 and 12
SARS-CoV-2; MOI 0.1, 24 h, Drug 0.1
  Cell-associated virus RNA loads, inhibition (Fig1C source data, per donor): 2 (3×) and 5 and 3 and 1
[1]; 140 mg/kg, 0.25 h
  MB-905 level (Fig5A): 544 and 555 and 638
[1]; 140 mg/kg, 1 h
  MB-905 level (Fig5A): 356 and 299 and 551
[1]; 140 mg/kg, 3 h
  MB-905 level (Fig5A): 447 and 177 and 154
[1]; 140 mg/kg, 8 h
  MB-905 level (Fig5A): 105 and 316 and 50
[1]; 140 mg/kg, 12 h
  MB-905 level (Fig5A): 0
[1]; 500 mg/kg, 0.25 h
  MB-905 level (Fig5A): 1228 and 1306 and 1348
[1]; 500 mg/kg, 1 h
  MB-905 level (Fig5A): 1348 and 946 and 1312
[1]; 500 mg/kg, 3 h
  MB-905 level (Fig5A): 894 and 544 and 652
[1]; 500 mg/kg, 8 h
  MB-905 level (Fig5A): 833 and 340 and 437
[1]; 500 mg/kg, 12 h
  MB-905 level (Fig5A): 103 and 13 and 0
[1]; [9]
  AUC: 66.4 ng·h/mL
  AUC(0-t): 55.5 ng·h/mL
  Cmax: 155 ng/mL
  Tmax: 4.98 min
  clearance: 918 mL/min/kg
  half-life: 13.2 min
  k el: 0.000858 s⁻¹
[1]; both sexes, CD1, mouse, plasma, iv, mice, 3 mg/kg (i.v.), read-out: Vz
  Vd: 19 L/kg
[1]; both sexes, CD1, mouse, plasma, po, 30 mg/kg, mice, 30 mg/kg (p.o.), read-out: F
  bioavailability: 53.5%
[1]; both sexes, CD1, mouse, plasma, po, 30 mg/kg, mice, read-out: Oral bioavailability
  bioavailability: > 50%
[1]; both sexes, CD1, mouse, plasma, po, 550 mg/kg, mice, 550 mg/kg (p.o.), read-out: F
  bioavailability: 36.1%
[1]; [10]
  AUC: 356 ng·h/mL
  AUC(0-t): 356 ng·h/mL
  Cmax: 570 ng/mL
  Tmax: 4.98 min
  half-life: 66.6 min
  k el: 0.000172 s⁻¹
[1]; [11]
  AUC: 4390 ng·h/mL
  AUC(0-t): 4390 ng·h/mL
  Cmax: 1050 ng/mL
  Tmax: 30 min
  half-life: 163 min
  k el: 6.94e-05 s⁻¹
[1]; mice, 30 mg/kg (p.o.)
  CL: 1060.15 mL/min/kg
  Vz: 102.21 L/kg
[1]; mice, 550 mg/kg (p.o.)
  CL: 1843.18 mL/min/kg
  Vz: 434.2 L/kg
[2]; 0.083 h
  MB-905 in rat plasma (Fig4A source data, per animal): 122.29 and 142.1 and 107.27 and 127.39 and 93.94
[2]; 0.25 h
  MB-905 in rat plasma (Fig4A source data, per animal): 82.46 and 129.29 and 128.28 and 120.23 and 112.61
  MB-905 in rat plasma (Fig4B source data, per animal): 397.32 and 362.53 and 415.61 and 353.44
[2]; 0.5 h
  MB-905 in rat plasma (Fig4A source data, per animal): 65.31 and 60.03 and 69.73 and 52.81 and 69.66
[2]; 1 h
  MB-905 in rat plasma (Fig4A source data, per animal): 28.25 and 16.64 and 9.33 and 14.09 and 7.19 and 13.17
  MB-905 in rat plasma (Fig4B source data, per animal): 263.22 and 231.26 and 292.83 and 229.84
[2]; 2 h
  MB-905 in rat plasma (Fig4A source data, per animal): 1.74 and 1.82 and 1.9 and 1.56 and 1.91
  MB-905 in rat plasma (Fig4B source data, per animal): 88.19 and 121.59 and 183.67 and 211.01 and 229.72
[2]; 3 h
  MB-905 in rat plasma (Fig4A source data, per animal): 0.61 and 1.31 and 1.15 (3×) and 1.21
  MB-905 in rat plasma (Fig4B source data, per animal): 243.45 and 113.36 and 86.5 and 220.24 and 141.51
[2]; 5 h
  MB-905 in rat plasma (Fig4B source data, per animal): 154.28 and 65.58 and 86.37 and 126.88 and 27.06
[2]; 8 h
  MB-905 in rat plasma (Fig4B source data, per animal): 116.98 and 84.1 and 84.26 and 4.12 and 35.08
[2]; 12 h
  MB-905 in rat plasma (Fig4B source data, per animal): 1.46 and 1.1 and 5.1 and 3.6 and 2.01
[2]; both sexes, Sprague-Dawley, rat, plasma, iv, 1 mg/kg, rats, 1 mg/kg (i.v.), read-out: F
  bioavailability: 100%
[2]; [12]
  AUC: 77.1 ng·h/mL
  AUC(0-t): 77.1 ng·h/mL
  Cmax: 124 ng/mL
  Tmax: 4.98 min
  clearance: 214 mL/min/kg
  half-life: 33.6 min
  k el: 0.000342 s⁻¹
[2]; both sexes, Sprague-Dawley, rat, plasma, iv, rats, 1 mg/kg (i.v.), read-out: Vz
  Vd: 10.4 L/kg
[2]; both sexes, Sprague-Dawley, rat, plasma, po, 30 mg/kg, rats, 30 mg/kg (p.o.), read-out: F
  bioavailability: 64.7%
[2]; both sexes, Sprague-Dawley, rat, plasma, po, 30 mg/kg, rats, read-out: Oral bioavailability
  bioavailability: > 50%
[2]; [13]
  AUC: 1500 ng·h/mL
  AUC(0-t): 1500 ng·h/mL
  Cmax: 370 ng/mL
  Tmax: 15 min
  half-life: 229 min
  k el: 5e-05 s⁻¹
[2]; rats, 30 mg/kg (p.o.)
  CL: 330.53 mL/min/kg
  Vz: 109.18 L/kg
SARS-CoV-2 gamma VoC [3]
  survival event code per animal (Fig5D): 1 (4×) and 0 (2×)
SARS-CoV-2 gamma VoC [3]; 140 mg/kg/day
  Body weight: recovered their body weight
  Survival: survived after two weeks
SARS-CoV-2 gamma VoC [4]
  Fig6G lung histological score: 1 and 2
SARS-CoV-2 Gamma VoC [5]
  Viral RNA levels: did not affect viral RNA levels
SARS-CoV-2 Gamma VoC [5]; 140 mg/kg
  Infectious virus titers in the lungs: reduced infectious virus titers in the lungs
[6]
  Cytotoxicity and mutagenicity, preliminary assay TA 100: not observed
[7]
  Tolerability: tolerated MB-905 well
[8]; 8 µg/mL
  Mutagenicity TA 102 +S9: -
  Mutagenicity TA 102 -S9: -
[8]; 40 µg/mL
  Mutagenicity TA 102 +S9: -
  Mutagenicity TA 102 -S9: -
[8]; 200 µg/mL
  Mutagenicity TA 102 +S9: -
  Mutagenicity TA 102 -S9: -
[8]; 1,000 µg/mL
  Mutagenicity TA 102 +S9: -
  Mutagenicity TA 102 -S9: -
[8]; 5,000 µg/mL
  Mutagenicity TA 102 +S9: -
  Mutagenicity TA 102 -S9: -
